Read-outs that look alike come from different tables or passages of the source. Values belong to the compound of their own block, whether it stands above or below them.
Tests used:
[1] = test system: tumor allograft model mice; assay: Tumor allograft model mouse (Lewis lung cancer cells); assay type: in vivo
Method: Tumors were measured by using vernier calipers, and tumor volumes were calculated as a product of length by width by width. After the tumor reached a certain size, the compound (100 mg/kg) was intraperitoneally administered 30 minutes before the intraperitoneal administration of 20 mg/kg of cisplatin.
Renal tubular damage was scored as follows.

[2] = molecular target: T1, recombinant human CCBL1 (Homo sapiens, UniProt Q16773); assay: Inhibition of CCBL1 beta-elimination activity by compound; assay type: biochemical; details: recombinant human CCBL1, compound at different concentrations
T1 construct: made in house; host or cells: Sf9 insect cells (baculovirus)
T1 sequence (Q16773 1-422): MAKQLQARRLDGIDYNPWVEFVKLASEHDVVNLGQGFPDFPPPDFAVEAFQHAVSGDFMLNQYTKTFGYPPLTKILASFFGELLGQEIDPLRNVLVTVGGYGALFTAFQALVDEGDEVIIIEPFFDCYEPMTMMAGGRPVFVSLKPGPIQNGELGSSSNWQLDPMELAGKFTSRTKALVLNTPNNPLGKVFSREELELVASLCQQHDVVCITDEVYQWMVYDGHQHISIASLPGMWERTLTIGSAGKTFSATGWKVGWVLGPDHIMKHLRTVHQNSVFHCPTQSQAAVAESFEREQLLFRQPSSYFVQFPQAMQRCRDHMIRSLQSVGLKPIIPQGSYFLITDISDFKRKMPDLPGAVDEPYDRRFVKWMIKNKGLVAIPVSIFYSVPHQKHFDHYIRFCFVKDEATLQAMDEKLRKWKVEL
Method: (§1) Sf9 cells infected with baculovirus containing human CCBL1 gene were centrifuged and thereby pelletized and dissolved in 50 mM phosphate buffer solution (pH 8.0) containing 300 mM NaCl and 10 mM imidazole. After ultrasonic treatment, the cell lysate was centrifuged at 10,000×g at 4° C. for 20 minutes, and recombinant CCBL1 in the supernatant was added to a pre-equalized Ni-NTA resin (QIAGEN). An enzyme/resin composite was transferred to a column and washed with a buffer solution containing 300 mM NaCl and 20 mM imidazole in 50 mM phosphate buffer solution (pH 8.0), and recombinant CCBL1 was eluted with a buffer solution (pH 8.0) containing 300 mM NaCl, 250 mM imidazole, and 50 mM phosphate. The enzyme fraction was pooled based on the purity determined by using SDS-PAGE and desalted by using a PD-10 column (GE Healthcare, U.K.)
The beta-elimination activity of CCBL1 was measured in accordance with a method described in “Arun Kumar Selvam et al., “A Novel Assay Method to Determine the—Elimination of Se-Methylselenocysteine to Monomethylselenol by Kynurenine Amino transferase 1” Antioxidants 2020, 9, 139; doi: 10. 3390/antiox 9020139″. […] Subsequently, 70 μL of the assay mixture was incubated at 37° C. for 10 minutes, 130 μL of 1M NaOH was added thereto, and the increase in the absorbance at 520 nm was measured by using a spectrophotometer (Nivo Multiplate Microplate Reader, PerkinElmer). […]

[3] = molecular target: T2, recombinant CCBL1 (KAT1) (Homo sapiens, UniProt Q16773); assay: Screening of KAT1 (CCBL1) inhibitory activity, L-kynurenine fluorescence assay; assay type: biochemical; details: for inhibition at 10 µM: 10 μM of the compound, 1 mM L-kynurenine, room temperature 2 hours; for CCBL1 (KAT1) inhibitory activity, in words: screening result
T2 construct: made in house; host or cells: Sf9 insect cells (baculovirus)
T2 sequence (Q16773 1-422): T1 sequence (Q16773 1-422)
Method: as §1
The CCBL1 inhibitory compound was obtained by screening KAT1 inhibitory activity of compounds included in a compound library (The Spectrum Collection) provided by Center for Supporting Drug Discovery and Life Science Research in Graduate School of Pharmaceutical Sciences, Osaka University. Here, 10 ng/μl recombinant CCBL, 1 mM L-kynurenine, 1 mM sodium pyruvate, 100 μM PLP, and 0.005% Tween 20 mixture solution contained in 150 mM of 2-amino-2-methyl-1-propanol buffer solution were added to a 384-well plate containing 10 μM of the compound and then incubated at room temperature for 2 hours. Subsequently, 20 μL of 300 mM zinc acetate solution was added thereto, and the fluorescent intensities at an excitation wavelength 340 nm and a fluorescent wavelength 460 nm were measured by Infinite M1000 plate reader (TECAN). The Control without containing the compound was defined as reaction 100%, the Background without containing any enzyme was defined as reaction 0%, and the inhibitory activity of the compound (Sample) was calculated based on the following equation.

[4] = test system: CCBL1 overexpressed LLC/PK1 cells; assay: Cell viability assay, cisplatin-induced renal tubular cell death; assay type: cell-based; details: 24 hours
Method: (§2) LLC/PK1 (pig kidney epithelium), LLC (Lewis lung cancer), and MDA-MB-231 (human breast cancer) cells were obtained from JCRB cell bank (Japan). The LLC/PK1 cells were transfected by a human CCBL1 expression vector, CCBL1 stable overexpression cells were cloned into CCBL1 overexpressed LLC/PK1 cells, which were used for further experiments. The CCBL1 overexpressed LLC/PK1 cells were proliferated in 199/EBSS culture medium (10% FBS, 1% penicillin/streptomycin, and 400 μg/ml of G418), and LLC and MDA-MB-231 cells were proliferated at 37° C. under humidified atmosphere of 5% CO2 in DMEM culture medium (10% FBS and 1% penicillin/streptomycin).
(§3) A cell viability assay kit was used to measure the cell viability. […] The absorbance at 490 nm was measured by using a microplate reader (Molecular Devices, USA). The cell viability was calculated as a value of the absorbance of treated cells relative to the absorbance of untreated cells.
(§4) To examine whether or not the compound X prevents cisplatin-induced renal uriniferous tubular cell death, CCBL1 overexpressed LLC/PK1 cells were treated with different concentrations of cisplatin and the compound X for 24 hours, and the cell viability was evaluated by cell proliferation assay. The expression amount of human CCBL1 in LLC-PK1 cells was determined by immunoblotting. […]

[5] = test system: human breast cancer cell lines (MDA-MB-231 cells); assay: Cell viability assay, cisplatin-induced tumor cell death; assay type: cell-based; details: with cisplatin, 24 hours
Method: as §2, §3, §4

[6] = test system: Lewis lung cancer cell lines (LLC cells); assay: as above; assay type: cell-based; details: with cisplatin, 24 hours
Method: as §2, §3, §4

[7] = test system: cisplatin-induced kidney injury model mice; details: mouse, in vivo
Method: (§5) To create cisplatin-induced kidney injury model mice, cisplatin (20 mg/kg) was administered once by intraperitoneal administration to male C57BL/6J mice with the body weight of 20 to 25 g (Japan SLC). To examine the kidney protection effect (prophylactic effect) of the compounds expressed by formulae (2) and (3) (hereafter, simply referred to as “compound”) on a cisplatin-induced kidney injury, the compound was intraperitoneally administered with doses of 0, 25, 50, and 100 mg/kg 30 minutes before the cisplatin injection. The mice were sacrificed on the third day after the cisplatin injection. Samples of the blood and the kidneys were taken and preserved at −80° C. for further analysis.
(§6) The levels of creatinine (Cre) and blood urea nitrogen (BUN) in serum were measured by using a fully automated blood biochemistry analyzer (BioMajesty JCA-BM9130) in accordance with a manufacturer-instructed method.

[8] = test system: cisplatin-induced kidney injury model mice; assay: Cisplatin-induced kidney injury model mouse; details: for BUN level in serum / Cre level in serum: compound 25, 50, 100 mg/kg i.p. 30 minutes before cisplatin 20 mg/kg, third day
Method: as §5, §6

[9] = both cisplatin and compound administered
[10] = compound plus cisplatin, tumor-bearing mice
[11] = compound and cisplatin versus cisplatin alone
[12] = cisplatin 20 mg/kg i.p. alone, tumor-bearing mice

Compound: CC(=O)c1c(O)cc(O)cc1O [compound X, 2,4,6-trihydroxyacetophenone]
body weight change [1, 9]: the body weight changed little | relative kidney weight [1, 9]: the relative kidney weight decreased | tumor size reduction by cisplatin when compound is co-administered ([1]; compound 100 mg/kg i.p. 30 minutes before cisplatin 20 mg/kg): this effect did not change | renal uriniferous tubular damage score ([1]; compound plus cisplatin versus cisplatin alone): reduces the renal uriniferous tubular damage score | BUN concentration in serum [1, 10]: reduced the increase in the cisplatin-induced BUN and Cre in a dose dependent manner | Cre concentration in serum [1, 10]: reduced the increase in the cisplatin-induced BUN and Cre in a dose dependent manner | inhibitory activity to CCBL1 β elimination activity [2]: inhibited by the compound X in a concentration dependent manner | inhibition at 10 µM [3]: 88.6% | LLC-PK1 cell death (cell viability) without cisplatin ([4]; cisplatin 0 μM): did not affect the LLC-PK1 cell death | cisplatin-induced renal tubular cell death (cell viability) ([4]; cisplatin 50 μM): prevented the cisplatin-induced renal tubular cell death in a dose dependent manner | cisplatin-induced tumor cell death (cell viability) [5]: did not affect the cisplatin-induced tumor cell death | cisplatin-induced tumor cell death (cell viability) [6]: did not affect the cisplatin-induced tumor cell death | BUN level in serum, compound administered alone [7]: no change in the Cre and BUN levels was found | Cre level in serum, compound administered alone [7]: no change in the Cre and BUN levels was found | injury of renal uriniferous tubular cells, compound alone (histopathology) [7]: does not injure renal uriniferous tubular cells | relative kidney weight ([8]; both cisplatin (20 mg/kg i.p.) and compound administered): did not increase the relative kidney weight | BUN level in serum [8]: reduces the Cre and BUN levels in a dose dependent manner | Cre level in serum [8]: reduces the Cre and BUN levels in a dose dependent manner | BAX level in kidney (immunoblotting) [8, 11]: decreased | Cleaved Caspase-3 level in kidney (immunoblotting) [8, 11]: decreased | cisplatin-induced renal tubular cell death (histopathological observation, PAS stain) ([8]; compound plus cisplatin): suppresses the cisplatin-induced renal tubular cell death in a dose dependent manner | tubular injury score ([8]; group of cisplatin and compound versus only cisplatin): lower tubular injury scores than the group of only cisplatin

inhibition at 10 µM [3]: 71.9%
Compound: CCC(=O)c1c(O)cc(O)cc1O [FLOPROPIONE, 1-(2,4,6-trihydroxyphenyl) propan-1-one]
inhibitory activity to CCBL1 β elimination activity [2]: inhibited by flopropione in a concentration dependent manner | BUN level in serum [8]: reduced Cre and BUN in a dose dependent manner | Cre level in serum [8]: reduced Cre and BUN in a dose dependent manner | BUN level in serum, compound administered alone ([8]; compound alone, no cisplatin): no change was found in the Cre and BUN levels | Cre level in serum, compound administered alone ([8]; compound alone, no cisplatin): no change was found in the Cre and BUN levels

Compound: O=C(CCc1ccc(O)cc1)c1c(O)cc(O)cc1O [PHLORETIN, 3-(4-hydroxyphenyl)-1-(2,4,6-trihydroxyphenyl) propan-1-one]
inhibition at 10 µM [3]: 83% | CCBL1 (KAT1) inhibitory activity, in words [3]: has a CCBL1 inhibitory function

Compound: N.N.[Cl][Pt][Cl] [cisplatin]
tumor size, cisplatin ([1]; cisplatin 20 mg/kg i.p.): reduced the tumor size | body weight, cisplatin alone [1, 12]: reduced the body weight | relative kidney weight, cisplatin alone [1, 12]: increased the relative kidney weight | BUN level in serum, cisplatin alone ([8]; cisplatin 20 mg/kg i.p. alone): increased the Cre and BUN levels | Cre level in serum, cisplatin alone ([8]; cisplatin 20 mg/kg i.p. alone): increased the Cre and BUN levels | body weight, cisplatin alone ([8]; cisplatin 20 mg/kg i.p. alone): reduced the body weight | relative kidney weight, cisplatin alone ([8]; cisplatin 20 mg/kg i.p. alone): increased the relative kidney weight

inhibition at 10 µM [3]: 5.6%
Compound: COc1cc(O)c(C(C)=O)c(O)c1 [4-O-METHYLPHLORACETOPHENONE, 4-O-methylphloracetophenone, reference compound]
CCBL1 (KAT1) inhibitory activity, in words [3]: exhibits little CCBL1 inhibitory activity

Source: patent publication US20250312292A1, “PHARMACEUTICAL COMPOSITION FOR USE IN THERAPEUTIC OR PROPHYLACTIC METHOD FOR KIDNEY INJURY, COMBINED MEDICINE CONTAINING SAID PHARMACEUTICAL COMPOSITION, AND CCBL1 INHIBITOR” (FUJITA ACADEMY, priority 2022, published 2025)
